Experimental data as given in PMC6272548, “Synthesis and Antiplatelet Activity of Antithrombotic Thiourea Compounds: Biological and Structure-Activity Relationship Studies” (Molecules, 2015).

Assays:
[1] = system: PGE2 production; experiment: Measurement of plasma PGE2 levels by EIA in platelet-rich plasma; type: cell-based; details: human platelet-rich plasma
Method: The stable direct metabolite of PGE2, 13,14-dihydro-15-keto-Prostaglandin E2, is a known marker of the COX-1 activity. By the measurement of total levels of this PGE2 metabolite in human platelet-rich plasma, we evaluated the feasibility of antiplatelet N,N'-disubstituted thioureas to inhibit COX-1 activity in healthy platelets (Table 2).
Plasma samples containing 100 μM of each thiourea with antiplatelet activity were used to determine the concentrations of […], an index of in vitro COX-1 activity. Briefly, ozagrel (3 μL, 100 μM) were added to stop TXS activity and the aggregation were triggered with 10 μL of arachidonic acid (500 μM) in PRP samples containing each active derivative (100 μM) under stir conditions. After five minutes the suspensions were mixed with indomethacin (3 μL, 10 mM) stop-solution. By sonication for 1 min, platelets were disrupted and purification step were performed according to the manufacturer’s instructions (Cayman Chemical Co.). Plasma levels of PGE2 were measured in duplicate by competitive immunoassay using commercially available kits for EIA (PGE2 EIA Kit, Cayman Chemical Co.) according to the manufacturer’s instructions. A threshold of 25.75 ng/mL was defined as control plasma levels of PGE2 after platelet disrupture.

[2] = system: Salmonella typhimurium; experiment: Reverse mutagenesis to histidine prototrophy (Ames test), spot test; details: without metabolic activation; 10 µM, 100 µM and 500 µM
Method: This assay was performed as described by Maron and Ames, using the histidine Salmonella typhimurium auxotroph mutant strains TA97, TA98, TA100 and the […] TA102 (Table 5).

[3] = system: TXB2 production; experiment: Measurement of plasma TXB2 levels by EIA in platelet-rich plasma; type: cell-based; details: Homo sapiens, Platelet
Method: Thromboxane B2 (TXB2), a stable TXA2 metabolite, is widely used as a prognostic risk marker of platelet activation in cardiovascular disease, which is closely related to COX-1 and Thromboxane Synthetase activity. Thus, the plasma levels of this metabolite were measured using an enzyme immunoassay (EIA) as described in the Experimental Section.
Plasma samples containing 100 μM of each thiourea with antiplatelet activity were used to determine the concentrations of thromboxane B2, an index of in vitro COX-1 activity. Briefly, 10 μL of arachidonic acid (500 μM) were added to platelet-rich plasma samples containing each active derivative (100 μM) under stir conditions. After five minutes the suspensions were mixed with 3 μL Indomethacin (10 mM) stop-solution. By sonication for 15 min, platelets were disrupted, and the resulting homogenates were centrifuged at 2000 g for 10 min to allow complete release of TXB2. Plasma levels of TXB2 were measured in duplicate by competitive immunoassay using commercially available kits from EIA Cayman (TXB2 EIA Kit, Cayman Chemical Co, Ann Arbor, MI, USA) according to the manufacturer’s instructions. A threshold of 25.75 ng/mL was defined as control plasma levels of TXB2 after platelet disrupture.

[4] = system: Escherichia coli; experiment: SOS chromotest, spot test; type: cell-based
Method: The SOS chromotest (spot test) was performed according to Quillardet and Hofnung, using Escherichia coli (Table 6) strains PQ35 and PQ37. One hundred microliters of an overnight culture of the E. coli strains are diluted in 5 mL of LB medium and the culture is incubated at 37 °C in a gyratory incubator up to a concentration of 2 × 10^8 bacteria/mL. Fractions of 0.1 mL of the culture are then distributed into test tube with top agar, and the mixture is poured immediately on M63 medium plate. A sample of 10 µL of the thiourea derivatives is spotted onto the center of the plate. After overnight incubation at 37 °C, the presence of a blue ring around a zone of inhibition indicates genotoxic activity.

[5] = Hemolysis assay (erythrocyte lysis); type: cell-based, human; details: human, erythrocyte suspension, pH 7.4; 3 h incubation; derivatives and ASA at 100 μM, TRITON at 1%
Method: Healthy erythrocytes were washed three times with PBS (pH 7.4) by centrifugation and suspended in the same buffer. All derivatives were incubated with the erythrocyte suspension for 3 h at 37 °C. The release of hemoglobin was determined by monitoring the optical density of the supernatant at 540 nm. The experiments were performed in triplicate and complete hemolysis (positive control) was determined using 1% Triton X-100. Hemolysis less than 10% indicated good hemocompatibility and non-toxicity of the molecules tested.

CC(=O)Oc1ccccc1C(=O)O [Aspirin, acetylsalicylic acid, reference compound]
inhibition at 100 µM [1]: 47.5 ± 1.4%
Ames Test S. typhimurium TA97 [2]: -
Ames Test S. typhimurium TA98 [2]: -
Ames Test S. typhimurium TA100 [2]: -
Ames Test S. typhimurium TA102 [2]: -
inhibition at 100 µM [3]: 78.5 ± 5%
SOS Chromotest E. coli PQ35 [4]: -
hemolysis at 3 h, 100 µM [5]: 2%
